Laboratory results: paper PMC2924936 (ACS chemical biology, 2010)
Where two headings read alike, the source gives them in different places.

How the values were obtained:
[1] = target: T1, yeast NADPH-cytochrome P450 reductase (yCPR) (Saccharomyces cerevisiae, UniProt P16603); test: SPR; format: binding
T1 sequence (P16603 34-691): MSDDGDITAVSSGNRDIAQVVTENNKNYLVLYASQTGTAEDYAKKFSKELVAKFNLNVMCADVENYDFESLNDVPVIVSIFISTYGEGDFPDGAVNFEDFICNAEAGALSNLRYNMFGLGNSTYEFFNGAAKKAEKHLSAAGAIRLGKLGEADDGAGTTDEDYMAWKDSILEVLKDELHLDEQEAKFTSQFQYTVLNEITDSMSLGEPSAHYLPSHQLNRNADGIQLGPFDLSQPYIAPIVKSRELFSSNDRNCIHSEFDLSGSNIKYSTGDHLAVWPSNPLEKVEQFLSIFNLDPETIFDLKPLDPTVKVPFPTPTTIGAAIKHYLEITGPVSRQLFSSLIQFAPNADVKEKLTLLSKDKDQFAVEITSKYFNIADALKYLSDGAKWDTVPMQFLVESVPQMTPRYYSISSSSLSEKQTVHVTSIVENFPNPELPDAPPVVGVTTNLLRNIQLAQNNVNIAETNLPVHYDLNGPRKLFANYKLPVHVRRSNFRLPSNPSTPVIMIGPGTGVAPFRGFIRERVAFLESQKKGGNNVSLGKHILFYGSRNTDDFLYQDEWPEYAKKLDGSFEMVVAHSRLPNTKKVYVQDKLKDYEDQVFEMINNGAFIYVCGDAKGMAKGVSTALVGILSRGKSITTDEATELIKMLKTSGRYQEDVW

[2] = target: T1, yeast NADPH-cytochrome P450 reductase (yCPR); test: SPR; format: binding; remark: listed apart in the source

| Kd [1] [nM] | Kd [2] [nM] | Compound |
| --- | --- | --- |
| 300 |  | Cc1cc2nc3c(=O)[nH]c(=O)nc-3n(C[C@H](O)[C@H](O)[C@H](O)COP(=O)(O)O)c2cc1C [compound 7, FMN] |
|  | 2300 | Cc1cc2nc3c(=O)[nH]c(=O)nc-3n(C[C@H](O)[C@H](O)[C@H](O)COP(=O)(O)OP(=O)(O)OC[C@H]3O[C@@H](n4cnc5c(N)ncnc54)[C@H](O)[C@@H]3O)c2cc1C [compound 8, FAD] |
